Measured values as given in patent US20260250318A1, “COMPOSITIONS AND METHODS FOR CROSSING THE BLOOD BRAIN BARRIER” (VOYAGER THERAPEUTICS, INC., priority 2022, published 2026).

Key:
[1] = test system: brains, heart, liver, muscle, and DRG of the NHPs; experiment: Maturation of TTM-001 and TTM-002 capsids, NGS enrichment in NHP tissues; format: in vivo; conditions: relative to AAV9 control
Method in brief: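 Variants carry mutations within and flanking the loop IV peptide insert: positions 450–466 were triplet-randomized, while positions 449–466 received low-frequency point mutations. The combined pool went into two NHPs, and each peptide was scored by NGS enrichment ratio against AAV9.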

[2] = test system: brain; experiment: Matured TTM-001 and TTM-002 variants, NGS enrichment in mouse brain; format: in vivo, mice; conditions: relative to AAV9 control
[3] = NGS fold-enrichment, DRG of NHPs
[4] = NGS fold-enrichment, RNA, brain of NHPs
[5] = NGS fold-enrichment, heart of NHPs
[6] = NGS fold-enrichment, liver DNA of NHPs
[7] = NGS fold-enrichment, liver RNA of NHPs
[8] = NGS fold-enrichment, muscle of NHPs
[9] = NGS fold-enrichment, brain of mice
[10] = NGS fold-enrichment of RNA, NHP brain
[11] = NGS fold-enrichment, NHP liver DNA
[12] = NGS fold-enrichment, NHP liver RNA
[13] = NGS fold-enrichment, NHP muscle
[14] = NGS fold-enrichment, mouse brain
[15] = NGS fold-enrichment of matured AAV capsid variants, NHP brain, RNA

Sequence | Fold Enrichment relative to AAV9, DRG (NHP) [1, 3] [fold] | Fold Enrichment relative to AAV9, Brain (NHP) [1, 4] [fold] | Fold Enrichment relative to AAV9, Heart (NHP) [1, 5] [fold] | Fold Enrichment relative to AAV9, Liver DNA (NHP) [1, 6] [fold] | Fold Enrichment relative to AAV9, Liver RNA (NHP) [1, 7] [fold] | Fold Enrichment relative to AAV9, Muscle (NHP) [1, 8] [fold] | Fold Enrichment relative to AAV9, Brain (Mouse) [2, 9] [fold] | Fold Enrichment relative to AAV9, Brain (NHP) [1, 15] [fold] | Fold Enrichment relative to AAV9, DRG (NHP) ([1]; NHP DRG) [fold] | Fold Enrichment relative to AAV9, Heart (NHP) ([1]; NHP heart) [fold] | Fold Enrichment relative to AAV9, Liver DNA (NHP) ([1]; NHP liver, DNA) [fold] | Fold Enrichment relative to AAV9, Liver RNA (NHP) ([1]; NHP liver, RNA) [fold] | Fold Enrichment relative to AAV9, Muscle (NHP) ([1]; NHP muscle) [fold] | Fold Enrichment relative to AAV9, Brain (Mouse) ([2]; mouse brain) [fold] | also measured
KTINGTGSPHSKAQNQQM | 0.000 | 62.151 | 0.000 | 0.000 | 0.000 | 0.000 | 62.376 | – | – | – | – | – | – | – | –
KTINGYDSPHKSGQYQHT | – | – | – | – | – | – | – | – | – | – | – | – | – | – | Fold Enrichment relative to AAV9, Brain (NHP) [1, 10]: 81.534 fold; Fold Enrichment relative to AAV9, DRG (NHP) ([1]; NGS fold-enrichment, NHP DRG): 0.000 fold; Fold Enrichment relative to AAV9, Heart (NHP) ([1]; NGS fold-enrichment, NHP heart): 0.036 fold; Fold Enrichment relative to AAV9, Liver DNA (NHP) [1, 11]: 0.000 fold; Fold Enrichment relative to AAV9, Liver RNA (NHP) [1, 12]: 0.000 fold; Fold Enrichment relative to AAV9, Muscle (NHP) [1, 13]: 0.000 fold; Fold Enrichment relative to AAV9, Brain (Mouse) [2, 14]: 10.524 fold
KTINKEGSPHSKAQNQQT | – | – | – | – | – | – | – | 53.006 | 0.000 | 0.029 | 0.111 | 0.177 | 0.000 | 64.520 | –
KTINVSGSPHSKAQGQQT | – | – | – | – | – | – | – | 55.870 | 0.000 | 0.191 | 0.040 | 0.592 | 0.000 | 87.211 | –
KTIPAIGSPHSKAQNQQT | – | – | – | – | – | – | – | 52.346 | 0.000 | 0.009 | 0.134 | 0.034 | 0.000 | 51.949 | –
KTIPIDGSPHSKAQNQQT | 0.000 | 64.421 | 0.047 | 0.936 | 0.234 | 0.000 | 76.826 | – | – | – | – | – | – | – | –
KTIPKNGSPHSKAQNQQT | – | – | – | – | – | – | – | 53.824 | 0.000 | 0.032 | 0.178 | 0.115 | 0.000 | 77.458 | –
KTIPMEGSPHSKAQNQQT | – | – | – | – | – | – | – | 56.560 | 0.000 | 0.000 | 0.371 | 1.824 | 0.000 | 89.951 | –
KTIQDGGSPHSKAQNQQT | 0.000 | 59.865 | 0.000 | 0.789 | 1.435 | 0.116 | 87.522 | – | – | – | – | – | – | – | –
KTIRDAGSPHSKAQNQQT | 0.000 | 60.346 | 0.000 | 0.251 | 0.141 | 0.000 | 113.179 | – | – | – | – | – | – | – | –
KTIRENGSPHSKAQNQQT | – | – | – | – | – | – | – | 55.605 | 0.000 | 0.000 | 0.257 | 0.131 | 0.016 | 95.931 | –
KTISGGGSPHSKAQNQQN | 0.000 | 59.801 | 0.000 | 0.039 | 0.722 | 0.000 | 87.761 | – | – | – | – | – | – | – | –
KTISGHDSPHKTGHNQQT | – | – | – | – | – | – | – | – | – | – | – | – | – | – | Fold Enrichment relative to AAV9, Brain (NHP) [1, 10]: 92.490 fold; Fold Enrichment relative to AAV9, DRG (NHP) ([1]; NGS fold-enrichment, NHP DRG): 0.000 fold; Fold Enrichment relative to AAV9, Heart (NHP) ([1]; NGS fold-enrichment, NHP heart): 0.233 fold; Fold Enrichment relative to AAV9, Liver DNA (NHP) [1, 11]: 0.000 fold; Fold Enrichment relative to AAV9, Liver RNA (NHP) [1, 12]: 0.730 fold; Fold Enrichment relative to AAV9, Muscle (NHP) [1, 13]: 0.057 fold; Fold Enrichment relative to AAV9, Brain (Mouse) [2, 14]: 8.823 fold
KTISGSGSPHSKAQYQHT | 0.000 | 66.739 | 0.000 | 0.191 | 0.000 | 0.000 | 59.822 | – | – | – | – | – | – | – | –
KTITGHDSPHKSGQHLQT | – | – | – | – | – | – | – | – | – | – | – | – | – | – | Fold Enrichment relative to AAV9, Brain (NHP) [1, 10]: 137.945 fold; Fold Enrichment relative to AAV9, DRG (NHP) ([1]; NGS fold-enrichment, NHP DRG): 0.000 fold; Fold Enrichment relative to AAV9, Heart (NHP) ([1]; NGS fold-enrichment, NHP heart): 0.072 fold; Fold Enrichment relative to AAV9, Liver DNA (NHP) [1, 11]: 0.000 fold; Fold Enrichment relative to AAV9, Liver RNA (NHP) [1, 12]: 0.000 fold; Fold Enrichment relative to AAV9, Muscle (NHP) [1, 13]: 0.000 fold; Fold Enrichment relative to AAV9, Brain (Mouse) [2, 14]: 4.187 fold
KTITGHDSPHKSGQNQWT | – | – | – | – | – | – | – | – | – | – | – | – | – | – | Fold Enrichment relative to AAV9, Brain (NHP) [1, 10]: 81.658 fold; Fold Enrichment relative to AAV9, DRG (NHP) ([1]; NGS fold-enrichment, NHP DRG): 0.000 fold; Fold Enrichment relative to AAV9, Heart (NHP) ([1]; NGS fold-enrichment, NHP heart): 0.090 fold; Fold Enrichment relative to AAV9, Liver DNA (NHP) [1, 11]: 0.000 fold; Fold Enrichment relative to AAV9, Liver RNA (NHP) [1, 12]: 0.936 fold; Fold Enrichment relative to AAV9, Muscle (NHP) [1, 13]: 0.000 fold; Fold Enrichment relative to AAV9, Brain (Mouse) [2, 14]: 7.744 fold
KTITGSGSPHSKAQTQLT | 0.160 | 60.846 | 8.992 | 0.000 | 0.000 | 0.000 | 55.640 | – | – | – | – | – | – | – | –
KTIYGHDSPHKSVQNQLT | – | – | – | – | – | – | – | – | – | – | – | – | – | – | Fold Enrichment relative to AAV9, Brain (NHP) [1, 10]: 92.381 fold; Fold Enrichment relative to AAV9, DRG (NHP) ([1]; NGS fold-enrichment, NHP DRG): 0.000 fold; Fold Enrichment relative to AAV9, Heart (NHP) ([1]; NGS fold-enrichment, NHP heart): 0.043 fold; Fold Enrichment relative to AAV9, Liver DNA (NHP) [1, 11]: 0.016 fold; Fold Enrichment relative to AAV9, Liver RNA (NHP) [1, 12]: 0.103 fold; Fold Enrichment relative to AAV9, Muscle (NHP) [1, 13]: 0.000 fold; Fold Enrichment relative to AAV9, Brain (Mouse) [2, 14]: 12.323 fold
KTLNGNGSPHSKAQNLQT | – | – | – | – | – | – | – | 54.458 | 0.668 | 0.000 | 0.172 | 0.161 | 0.000 | 159.134 | –
